Consider 13 compounds from PubChem BioAssay (NCI).

Some test systems named below: NCI-H226 lung; MALME-3M melanoma; CCRF-CEM leukemia; SNB-19 CNS; A549 NSCLC; IGROV1 ovarian; HL-60(TB) leukemia; OVCAR-4 ovarian; SK-OV-3 ovarian.
Holding throughout (experiment): NCI-60 cell line screen, 48 h

SMILES strings stand for the structures.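 Assay format: 96-well plates, 48-hour exposure. GI50 = concentration required for 50% inhibition of growth. TGI is the concentration that stops growth completely.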

For `CC(=O)Nc1ccc(/C=c2\sc3nnc(CCC(=O)Nc4ccccc4Cl)n3c2=O)cc1`, the TGI was 52.7 µM in the test on NCI-H226 lung; above 100 µM in the test with MALME-3M melanoma; 42.9 µM with CCRF-CEM leukemia; above 100 µM with SNB-19 CNS; above 100 µM in the test on A549 NSCLC; above 100 µM in the test with IGROV1 ovarian. In addition, the TGI is 41 µM in the test on HL-60(TB) leukemia, 43 µM with OVCAR-4 ovarian and above 100 µM in the test with SK-OV-3 ovarian.

`N.N.NCCCCCN.O=C([O-])CCl.O=C([O-])CCl.O=C([O-])CCl.O=C([O-])CCl.[Pt+4].[Pt+4]`: the GI50 in the test on NCI-H226 lung was 0.857 µM; in the test on MALME-3M melanoma it was 11.9 µM; with CCRF-CEM leukemia, 1.71 µM; with SNB-19 CNS, 1.94 µM; in the test with A549 NSCLC it was 3.03 µM; in the test with IGROV1 ovarian it was 18 µM. Also, the values for the GI50 with HL-60(TB) leukemia, in the test on OVCAR-4 ovarian and in the test with SK-OV-3 ovarian were 1.43 µM, 10.2 µM and 8.01 µM, respectively. Further, the TGI in the test with NCI-H226 lung is 3.9 µM; in the test on MALME-3M melanoma, 39.2 µM; in the test with CCRF-CEM leukemia it was above 100 µM; in the test with SNB-19 CNS, 17.2 µM; with A549 NSCLC, 30 µM; with IGROV1 ovarian it was 67.3 µM. The TGI with HL-60(TB) leukemia was 11.2 µM; in the test with OVCAR-4 ovarian, 48.3 µM; in the test with SK-OV-3 ovarian, 48.1 µM.

As for `Cc1cc([N+](=O)[O-])ccc1NC(=O)C(=O)C(C(=O)c1ccccc1-c1ccccc1)C1OC(=O)c2ccccc21` (stereo unspecified), the TGI in the test on NCI-H226 lung is 28.5 µM; in the test on MALME-3M melanoma it was 29.9 µM; in the test on CCRF-CEM leukemia, above 100 µM; with SNB-19 CNS it was 12.3 µM; with A549 NSCLC, above 100 µM; in the test with IGROV1 ovarian it was 67.8 µM. Moreover, the TGI in the test on OVCAR-4 ovarian was determined as 77.9 µM; with SK-OV-3 ovarian, 65.6 µM.

On to `COc1c(C)cc(O)cc1C=O`, for which the TGI with NCI-H226 lung, in the test on MALME-3M melanoma, with CCRF-CEM leukemia, in the test with SNB-19 CNS, in the test with A549 NSCLC and in the test on IGROV1 ovarian was above 100 µM throughout. Moreover, the TGI with HL-60(TB) leukemia, with OVCAR-4 ovarian and in the test on SK-OV-3 ovarian was above 100 µM each time.

In the case of `CCOC(=O)C1SC(=Nc2cccc(Cl)c2C)N=C1C` (stereo unspecified), the TGI is 72.6 µM in the test on NCI-H226 lung; 42.4 µM in the test on MALME-3M melanoma; above 100 µM in the test with SNB-19 CNS; 60.4 µM in the test with A549 NSCLC; above 100 µM in the test on IGROV1 ovarian; 46.8 µM with HL-60(TB) leukemia. In the test with OVCAR-4 ovarian, this compound had a TGI of 89.5 µM.

Take `CCCCCCCCOCC(O)COC(C)C` (stereo unspecified): the TGI is above 100 µM in the test on NCI-H226 lung; above 100 µM in the test with MALME-3M melanoma; 52.8 µM in the test with CCRF-CEM leukemia; above 100 µM with SNB-19 CNS; above 100 µM with A549 NSCLC; above 100 µM in the test on IGROV1 ovarian. Moreover, the TGI was 31.7 µM in the test with HL-60(TB) leukemia, above 100 µM with OVCAR-4 ovarian and above 100 µM in the test on SK-OV-3 ovarian.

In the case of `O=c1cc(-c2ccccc2)oc2ccc(OC/C(=N/O)c3ccccc3)cc12`, the GI50 in the test on NCI-H226 lung is 15.9 µM; with CCRF-CEM leukemia, 1.51 µM; with SNB-19 CNS, 2.34 µM; in the test with A549 NSCLC, 3 µM; in the test with IGROV1 ovarian, 7.62 µM; with HL-60(TB) leukemia, 2.12 µM. Besides, the results for the GI50 in the test with OVCAR-4 ovarian and in the test on SK-OV-3 ovarian were 29 µM and 1.1 µM, respectively. For the same compound, the TGI was above 50 µM with NCI-H226 lung; above 50 µM in the test with CCRF-CEM leukemia; 35.2 µM in the test on SNB-19 CNS; above 50 µM in the test on A549 NSCLC; above 50 µM with IGROV1 ovarian; above 50 µM with HL-60(TB) leukemia. For the same compound, the TGI with OVCAR-4 ovarian is above 50 µM; in the test on SK-OV-3 ovarian, 16.2 µM.

Regarding `Cc1cc([N+](=O)[O-])ccc1Sc1c2ccccc2nc2cc(Cl)ccc12`, the TGI in the test on NCI-H226 lung, with MALME-3M melanoma, with CCRF-CEM leukemia, with SNB-19 CNS, with A549 NSCLC and in the test on IGROV1 ovarian was above 100 µM in each case. For the same compound, the TGI with HL-60(TB) leukemia is 51 µM; in the test with OVCAR-4 ovarian it was above 100 µM; in the test on SK-OV-3 ovarian it was above 100 µM.

With `COC(=O)C(Cc1nc2ccccc2[nH]c1=O)/C(=N\NC(C)(C)C)C(=O)Nc1c(C)cc(Br)cc1C` (stereo unspecified), the TGI in the test on NCI-H226 lung was 54.4 µM; with MALME-3M melanoma, 62.2 µM; with CCRF-CEM leukemia it was 57.3 µM; in the test on SNB-19 CNS, above 100 µM; with A549 NSCLC it was above 100 µM; in the test on IGROV1 ovarian, above 100 µM. For the same compound, the TGI with OVCAR-4 ovarian and with SK-OV-3 ovarian was above 100 µM each time.

Consider `COc1ccc(OC(C)=O)c2c1CCC=CC2=O`, for which the TGI in the test on NCI-H226 lung stood at 33.7 µM; with MALME-3M melanoma, 44.1 µM; in the test on CCRF-CEM leukemia, 17.1 µM; in the test with SNB-19 CNS, 31.4 µM; in the test with A549 NSCLC, 35.4 µM; in the test with IGROV1 ovarian, 34.4 µM. Further, the results for the TGI with HL-60(TB) leukemia, with OVCAR-4 ovarian and with SK-OV-3 ovarian were 6.7 µM, 36.1 µM and 31.2 µM, respectively.

Consider `COc1ccc(C(CCC(C)=O)C(=O)O)cc1OC` (stereo unspecified), for which the TGI in the test on MALME-3M melanoma, in the test on SNB-19 CNS, with A549 NSCLC, in the test on IGROV1 ovarian and in the test on OVCAR-4 ovarian was above 100 µM each time.

Regarding `C#CCNC(=O)N(CC#C)N=O`, the TGI was above 100 µM with NCI-H226 lung; above 100 µM with MALME-3M melanoma; above 100 µM in the test with CCRF-CEM leukemia; above 100 µM with SNB-19 CNS; above 100 µM in the test on IGROV1 ovarian; 63.4 µM with HL-60(TB) leukemia. In addition, the TGI in the test on OVCAR-4 ovarian and with SK-OV-3 ovarian was above 100 µM in each case.

Take `c1ccc([CH2][Sn]([CH2]c2ccccc2)([O]c2cccc3cccnc23)[O]c2cccc3cccnc23)cc1`: the GI50 was 1.38 µM with NCI-H226 lung; 0.266 µM with MALME-3M melanoma; 1.15 µM in the test with SNB-19 CNS; 0.245 µM in the test with A549 NSCLC; 0.403 µM in the test with IGROV1 ovarian; 0.314 µM in the test with HL-60(TB) leukemia. Besides, the results for the GI50 in the test with OVCAR-4 ovarian and in the test with SK-OV-3 ovarian were 0.184 µM and 0.492 µM, respectively. Further, the TGI in the test with NCI-H226 lung was 2.85 µM; in the test with MALME-3M melanoma, 0.689 µM; in the test with SNB-19 CNS, 2.49 µM; in the test on A549 NSCLC, 0.69 µM; in the test on IGROV1 ovarian, 1.23 µM; in the test with HL-60(TB) leukemia, above 100 µM. Besides, the values for the TGI in the test with OVCAR-4 ovarian and in the test with SK-OV-3 ovarian were 0.374 µM and 1.57 µM, respectively.
